Laboratory results: US7320981B2, “Variolin derivatives as anti-cancer agents” (Pharma Mar, S.A., priority 2000, dated 2008)
Read-outs that look alike come from different tables or passages of the source.

What was measured:
[1] = test system: SW-620; assay: SRB cell growth/viability assay, SW-620; conditions: for GI50 / CC50: Homo sapiens, SW-620, 48 h; for GI50: read-out: GI50 (50% growth inhibition); for CC50: read-out: LC50 (50% net cell killing, cytotoxic effect)
Text: (§1) A colorimetric type of assay, using sulforhodamine B (SRB) reaction has been adapted for a quantitative measurement of cell growth and viability: see Skehan, P. A. et al. J. Natl. Cancer Inst., 1990, 82, 1107-1112. This form of the assay employs 96 well cell culture microplates of 9 mm diameter (Faircloth, G. T.; Stewart, D. and Clement, J. J., Journal of Tissue and Culture Methods, 1983, 11, 201-205; Mosmann, T. Journal of Immunological Methods, 1983, 65, 55-63.).
(§2) Most of the cell lines are obtained from American Type Culture Collection (ATCC) derived from different human cancer types. Cells are maintained in RPMI 1640 10% FBS, supplemented with 0.1 g/l penicillin and 0.1 g/l streptomycin sulfate and then incubated at 37° C., 5% CO2 and 98% humidity. For the experiments, cells were harvested from subconfluent cultures using trypsin and resuspended in fresh medium before plating.
(§3) Cells are seeded in 96 well microtiter plates, at 5×10^3 cells per well in aliquots of 195 μl medium, and they are allowed to attach to the plate surface by growing in drug free medium for 18 hours. Afterward, samples are in aliquots of 5 pi in a ranging from 10 to 10-8 μg/ml dissolved in DMSO/EtOH (0.2% in PS buffer). After 48 hours exposure, the antitumour effect are measured by the SRB methodology: cells are fixed by adding 50 μl of cold 50% (w/v) trichloroacetic acid (TCA) and incubating for 60 minutes at 4° C. Plates are washed with deionized water and dried. 100 μl of SRB solution (0.4% w/v in 1% acetic acid) is added to each microtiter well and incubated for 10 minutes at room temperature. Unbound SRB is removed by washing with 1% acetic acid. Plates are air-dried and bound stain is solubilized with Tris buffer. Optical densities are read on an automated spectrophotometric plate reader at a single wavelength of 490 nm.
(§4) The values for mean +/− SD of data from triplicate wells are calculated Some parameters for cellular responses can be calculated: […], TGI=total growth inhibition (cytostatic effect) and LC=cell killing (cytotoxic effect).

[2] = test system: DU-145; assay: SRB cell growth/viability assay, DU-145; conditions: for GI50 / CC50: Homo sapiens, DU-145, 48 h; for GI50: read-out: GI50 (50% growth inhibition); for CC50: read-out: LC50 (50% net cell killing, cytotoxic effect)
Text: as §1, §2, §3, §4

[3] = test system: MEL-28; assay: SRB cell growth/viability assay, MEL-28; conditions: for GI50 / CC50: Homo sapiens, SK-MEL-28, 48 h; for GI50: read-out: GI50 (50% growth inhibition); for CC50: read-out: LC50 (50% net cell killing, cytotoxic effect)
Text: as §1, §2, §3, §4

[4] = test system: A498; assay: SRB cell growth/viability assay, A498; conditions: for GI50 / CC50: Homo sapiens, A498, 48 h; for GI50: read-out: GI50 (50% growth inhibition); for CC50: read-out: LC50 (50% net cell killing, cytotoxic effect)
Text: as §1, §2, §3, §4

[5] = test system: MB-231; assay: SRB cell growth/viability assay, MB-231; conditions: for GI50 / CC50: Homo sapiens; for GI50: read-out: GI50 (50% growth inhibition); for CC50: read-out: LC50 (50% net cell killing, cytotoxic effect)
Text: as §1, §2, §3, §4

[6] = test system: A-549; assay: SRB cell growth/viability assay, A-549; conditions: for GI50 / CC50: Homo sapiens, A549, 48 h
Text: as §1, §2, §3, §4

[7] = test system: MCF-7; assay: SRB cell growth/viability assay, MCF-7; conditions: for GI50 / CC50: Homo sapiens, MCF7, 48 h; for GI50: read-out: GI50 (50% growth inhibition); for CC50: read-out: LC50 (50% net cell killing, cytotoxic effect)
Text: as §1, §2, §3, §4

[8] = test system: HT-29; assay: SRB cell growth/viability assay, HT-29; conditions: for GI50 / CC50: Homo sapiens, HT-29, 48 h
Text: as §1, §2, §3, §4

[9] = test system: OVCAR-3; assay: cells; assay type: cell-based; conditions: for CC50 / GI50: Homo sapiens; for CC50: read-out: LC50 (50% net cell killing, cytotoxic effect); for GI50: read-out: GI50 (50% growth inhibition)
Text: Plates are washed with deionized water and dried.

[10] = read-out: GI50 (50% growth inhibition)
[11] = read-out: LC50 (50% net cell killing, cytotoxic effect)
[12] = Table 1, colon cell line SW-620, 48 hours exposure, SRB
[13] = Table 1, ovary cell line OVCAR-3, 48 hours exposure, SRB
[14] = Table 1, prostate cell line DU-145, 48 hours exposure, SRB
[15] = Table 1, melanoma cell line MEL-28, 48 hours exposure, SRB
[16] = Table 1, kidney cell line A498, 48 hours exposure, SRB
[17] = Table 1, breast cell line MB-231, 48 hours exposure, SRB
[18] = Table 1, NSCL cell line A-549, 48 hours exposure, SRB
[19] = Table 1, breast cell line MCF-7, 48 hours exposure, SRB
[20] = Table 1, colon cell line HT-29, 48 hours exposure, SRB

Structure (SMILES)	GI50 [1]	CC50 [1]	GI50 [2]	CC50 [2]	GI50 [3]	CC50 [3]	GI50 [4]	CC50 [4]	GI50 ([5]; 48 h)	CC50 ([5]; 48 h)	GI50 [6, 10]	CC50 [6, 11]	GI50 [7]	CC50 [7]	GI50 [8, 10]	CC50 [8, 11]	TGI (total growth inhibition, cytostatic effect) [1, 12]	GI50 [9, 13]	TGI (total growth inhibition, cytostatic effect) [9, 13]	TGI (total growth inhibition, cytostatic effect) [2, 14]	further results
Nc1nccc(-c2c3c(O)ccnc3n3c(N)nccc23)n1 [Compound 1, Variolin B]	100 nM	2000 nM	100 nM	1000 nM	700 nM	2000 nM	100 nM	2000 nM	300 nM	3000 nM	700 nM	3000 nM	700 nM	2000 nM	700 nM	3000 nM	–	–	–	–	TGI (total growth inhibition, cytostatic effect) ([1]; 48 h): 3.E−07 M; TGI (total growth inhibition, cytostatic effect) ([2]; 48 h): 3.E−07 M; TGI (total growth inhibition, cytostatic effect) ([3]; 48 h): 1.E−06 M; TGI (total growth inhibition, cytostatic effect) ([4]; 48 h): 3.E−07 M; TGI (total growth inhibition, cytostatic effect) ([5]; 48 h): 1.E−06 M; TGI (total growth inhibition, cytostatic effect) ([6]; 48 h): 1.E−06 M; GI50 ([6]; read-out: A-549 GI50): 170 nM; CC50 ([6]; read-out: A-549 LC50): 170000 nM; A-549 TGI ([6]; Table 2, A-549, 48 hours exposure, SRB): 6.8 10^−7 M; TGI (total growth inhibition, cytostatic effect) ([7]; 48 h): 2.E−06 M; TGI (total growth inhibition, cytostatic effect) ([8]; 48 h): 1.E−06 M; GI50 ([8]; read-out: HT-29 GI50): 1000 nM; CC50 ([8]; read-out: HT-29 LC50): > 170000 nM; HT-29 TGI ([8]; Table 2, HT-29, 48 hours exposure, SRB): 1.7 10^−5 M
Nc1nccc(-c2c3cccnc3n3c(N)nccc23)n1 [Compound 4, deoxyvariolin B]	70 nM	10000 nM	100 nM	7000 nM	70 nM	300 nM	70 nM	700 nM	70 nM	30000 nM	100 nM	400 nM	100 nM	4000 nM	70 nM	10000 nM	3.E−07 M	100 nM	3.E−07 M	3.E−07 M	CC50 ([9]; OVCAR-3, 48 h): 400 nM; TGI (total growth inhibition, cytostatic effect) [3, 15]: 1.E−07 M; TGI (total growth inhibition, cytostatic effect) [4, 16]: 2.E−07 M; TGI (total growth inhibition, cytostatic effect) [5, 17]: 3.E−07 M; TGI (total growth inhibition, cytostatic effect) [6, 18]: 2.E−07 M; TGI (total growth inhibition, cytostatic effect) [7, 19]: 3.E−07 M; TGI (total growth inhibition, cytostatic effect) [8, 20]: 2.E−07 M
CSc1nccc(-c2c3cccnc3n3c(N)nccc23)n1 [Compound 5, thiodeoxyvariolin]	3000 nM	30000 nM	300 nM	3000 nM	60 nM	6000 nM	600 nM	3000 nM	2000 nM	10000 nM	1000 nM	10000 nM	2000 nM	30000 nM	600 nM	10000 nM	1.E−05 M	1000 nM	2.E−06 M	1.E−06 M	CC50 [9, 13]: 3000 nM; TGI (total growth inhibition, cytostatic effect) [3, 15]: 3.E−07 M; TGI (total growth inhibition, cytostatic effect) [4, 16]: 2.E−06 M; TGI (total growth inhibition, cytostatic effect) [5, 17]: 6.E−07 M; TGI (total growth inhibition, cytostatic effect) [6, 18]: 3.E−06 M; TGI (total growth inhibition, cytostatic effect) [7, 19]: 6.E−06 M; TGI (total growth inhibition, cytostatic effect) [8, 20]: 2.E−06 M
